This is an account of results in ChEMBL document CHEMBL1201862, “PubChem BioAssay data set” (2004).

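A five-concentration, 48-hour dose response in 96-well plates underlies each endpoint, interpolated linearly between surrounding concentrations. Abbreviation: GI50, concentration required for 50% inhibition of growth.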 Calls of active or inactive are those of the source. Rule as the data show it: active = GI50 up to about 1.1 µM and inactive = higher. Bounds are passed on as bounds.

Test systems include A549; CAKI-1; COLO 205; HCC 2998; HCT-116; HCT-15; HOP-62; IGROV-1; K562; LOX IMVI; MDA-N; OVCAR-4; OVCAR-5; PC-3; RPMI-8226; RXF 393; SF-268; SK-MEL-28; SK-MEL-5; SW-620.
Common to all, as to test: inhibition of tumour cell growth, NCI panel, 48 h

Regarding `CCN1C(=O)CS/C1=N\NC(=O)CSc1nc2ccccc2c(=O)n1CC`, the GI50 in the test with A549 is > 100 µM (inactive); in the test on CAKI-1, > 100 µM (inactive); with COLO 205, > 100 µM (inactive); with HCC 2998, > 100 µM (inactive); with HCT-116 it was > 100 µM (inactive); with HCT-15 it was greater than 100 µM. The GI50 with HOP-62, in the test with IGROV-1, in the test on K562, in the test with LOX IMVI, with MDA-N and in the test with OVCAR-4 was > 100 µM (inactive) each time. For the same molecule, the GI50 in the test with OVCAR-5 is > 100 µM (inactive); in the test on PC-3, > 100 µM (inactive); with RPMI-8226 it was > 100 µM (inactive); with RXF 393 it was 65.9 µM (inactive); in the test with SF-268, > 100 µM (inactive); in the test on SK-MEL-28, > 100 µM (inactive). Further, the GI50 with SK-MEL-5 and in the test on SW-620 was > 100 µM (inactive) each time.
In the case of `CCOC(=O)C1=C(C)NC(C)=C(C(=O)OCC)C1c1ccc(C)cc1`, the GI50 was 47.2 µM (inactive) in the test with A549; 48.6 µM (inactive) with CAKI-1; > 10 µM (inactive) in the test on COLO 205; 73.6 µM (inactive) in the test with HCC 2998; 36.1 µM (inactive) in the test with HCT-116; 25.8 µM in the test on HCT-15. Moreover, the GI50 in the test on HOP-62 is 46.5 µM (inactive); in the test with IGROV-1, 27 µM (inactive); in the test on K562 it was 31 µM (inactive); in the test on LOX IMVI it was 31.8 µM (inactive); in the test on MDA-N, 31.8 µM (inactive); in the test with OVCAR-4 it was 54.3 µM (inactive). In addition, the GI50 was 41.6 µM (inactive) in the test on OVCAR-5; 24.5 µM (inactive) in the test on PC-3; 30.3 µM (inactive) in the test with RPMI-8226; 29.1 µM (inactive) in the test on RXF 393; 51.1 µM (inactive) in the test on SF-268; > 100 µM (inactive) with SK-MEL-28. For the same molecule, the GI50 was 18.8 µM (inactive) with SK-MEL-5 and 45.8 µM (inactive) in the test with SW-620.
Take `COC1(OC)c2occc2C(=N)c2ccc(=O)oc21`: the GI50 is > 100 µM (inactive) with A549; > 100 µM (inactive) with CAKI-1; > 100 µM (inactive) in the test on COLO 205; > 100 µM (inactive) in the test on HCC 2998; > 100 µM (inactive) with HCT-116; greater than 100 µM in the test with HCT-15. Further, the GI50 in the test on HOP-62, with IGROV-1, in the test on K562, in the test on LOX IMVI, with MDA-N and with OVCAR-4 was > 100 µM (inactive) throughout. The GI50 with OVCAR-5, in the test on PC-3, with RPMI-8226, with RXF 393, in the test on SF-268 and in the test with SK-MEL-28 was > 100 µM (inactive) in each case. Also, the GI50 is 22.4 µM (inactive) in the test on SK-MEL-5 and > 100 µM (inactive) in the test with SW-620.
On to `c1ccc(-c2cc3[nH]c4ccccc4[nH]c-3cc(-c3ccccc3)nn2)cc1`, for which the GI50 with A549 was 40.4 µM (inactive); in the test with CAKI-1, 91.8 µM (inactive); with COLO 205, > 100 µM (inactive); in the test on HCC 2998 it was 40 µM (inactive); with HCT-116, 33.6 µM (inactive); in the test with HCT-15, 87.7 µM. The GI50 was 26.3 µM (inactive) in the test on HOP-62; 32.1 µM (inactive) with IGROV-1; > 100 µM (inactive) with K562; 72.3 µM (inactive) in the test on LOX IMVI; > 100 µM (inactive) in the test with MDA-N; 56.2 µM (inactive) with OVCAR-4. The GI50 in the test with OVCAR-5 was > 100 µM (inactive); in the test with PC-3, 55.1 µM (inactive); in the test on RPMI-8226, 88.1 µM (inactive); in the test on RXF 393 it was 76.9 µM (inactive); in the test on SF-268, 53 µM (inactive); with SK-MEL-28, > 100 µM (inactive). Besides, the GI50 is 74.6 µM (inactive) in the test with SK-MEL-5 and 81.7 µM (inactive) with SW-620.
As to `Cc1cc(NS(=O)(=O)c2ccc(Nc3c4ccccc4nc4ccc(C(=O)Nc5ccc(S(=O)(=O)N=C(N)N)cc5)cc34)cc2)no1`, the GI50 in the test on A549 was > 100 µM (inactive); with CAKI-1, > 100 µM (inactive); in the test on COLO 205, > 100 µM (inactive); in the test with HCC 2998, > 100 µM (inactive); with HCT-116 it was > 100 µM (inactive); in the test with HCT-15, greater than 100 µM. Moreover, the GI50 with HOP-62, with IGROV-1, with K562, in the test on LOX IMVI, in the test on MDA-N and in the test with OVCAR-4 was > 100 µM (inactive) in each case. Besides, the GI50 with OVCAR-5, with PC-3, with RPMI-8226, with RXF 393, with SF-268 and in the test on SK-MEL-28 was > 100 µM (inactive) in each case. The GI50 in the test with SK-MEL-5 and in the test on SW-620 was > 100 µM (inactive) in each case.
For `Nc1nc(Cl)cc(NCC2(CO)CCC(CCc3ccccc3)C2)n1` (stereo not given), the GI50 is 12.6 µM (inactive) in the test with A549; 13.5 µM (inactive) in the test with CAKI-1; 12.8 µM (inactive) with COLO 205; 17.5 µM (inactive) in the test with HCC 2998; 2.29 µM (inactive) in the test with HCT-116; 16.3 µM with HCT-15. Moreover, the GI50 in the test on HOP-62 was 1.05 µM (active); with IGROV-1 it was 17.5 µM (inactive); in the test on K562, 0.962 µM (active); in the test with LOX IMVI it was 7.89 µM (inactive); in the test with MDA-N, 14.2 µM (inactive); in the test on OVCAR-4, 11.9 µM (inactive). Also, the GI50 in the test with OVCAR-5 is 14.5 µM (inactive); in the test on PC-3 it was 19.3 µM (inactive); in the test on RPMI-8226, 2.86 µM (inactive); in the test with RXF 393 it was 14.8 µM (inactive); in the test on SF-268, 16.6 µM (inactive); in the test on SK-MEL-28 it was 19.6 µM (inactive). Moreover, the GI50 in the test with SK-MEL-5 is 0.0665 µM (active); in the test on SW-620, 2.02 µM (inactive).
Take `O=C1OC(c2ccccc2)=N/C1=C\c1cccc(F)c1`: the GI50 was > 100 µM (inactive) in the test on A549; > 100 µM (inactive) in the test with CAKI-1; > 100 µM (inactive) in the test on COLO 205; 72.3 µM (inactive) in the test with HCC 2998; > 100 µM (inactive) in the test on HCT-116; greater than 100 µM in the test on HCT-15. Moreover, the GI50 with HOP-62 is 38.6 µM (inactive); with IGROV-1, 52.5 µM (inactive); in the test on K562, > 100 µM (inactive); with LOX IMVI, 22.2 µM (inactive); with MDA-N, 56.6 µM (inactive); in the test with OVCAR-4, 31.3 µM (inactive). In addition, the GI50 with OVCAR-5 is > 100 µM (inactive); in the test with PC-3 it was > 100 µM (inactive); with RPMI-8226, 19.7 µM (inactive); with RXF 393, > 100 µM (inactive); in the test on SF-268, 34.5 µM (inactive); in the test with SK-MEL-28, 96.6 µM (inactive). Besides, the GI50 in the test with SK-MEL-5 was 51.4 µM (inactive); in the test with SW-620, > 100 µM (inactive).
`Cc1ccc(-c2c3c(n(C4OC(CO)C(O)C(O)C4O)c(=S)c2C#N)CC(C)(C)CC3=O)cc1` (stereo not given): the GI50 in the test with A549 is > 100 µM (inactive); in the test with CAKI-1, > 100 µM (inactive); in the test on COLO 205 it was > 10 µM (inactive); in the test on HCC 2998 it was > 100 µM (inactive); in the test on HCT-116, 40.4 µM (inactive); in the test on HCT-15, 45.9 µM. The GI50 in the test on HOP-62 was > 100 µM (inactive); in the test on IGROV-1, > 100 µM (inactive); with K562, 45.2 µM (inactive); in the test on LOX IMVI, 48.3 µM (inactive); in the test on MDA-N it was 46 µM (inactive); with OVCAR-4, > 100 µM (inactive). Further, the GI50 in the test on OVCAR-5 is > 100 µM (inactive); in the test on PC-3, 41.1 µM (inactive); with RPMI-8226 it was 32.7 µM (inactive); in the test with RXF 393 it was > 100 µM (inactive); in the test with SF-268 it was > 100 µM (inactive); in the test on SK-MEL-28, 52.2 µM (inactive). In addition, the GI50 was 34.6 µM (inactive) in the test on SK-MEL-5 and > 100 µM (inactive) in the test on SW-620.
Take `Cc1cc2nc(N3C(=O)/C(=C/c4ccc(Oc5ccccc5)cc4)N=C3c3ccccc3)sc2cc1C`: the GI50 in the test on A549 is 48.2 µM (inactive); with CAKI-1, 50.5 µM (inactive); in the test with COLO 205, 20.9 µM (inactive); in the test on HCC 2998, 40 µM (inactive); with HCT-116 it was 40.6 µM (inactive); in the test with HCT-15, 29.4 µM. For the same molecule, the GI50 in the test with HOP-62 was > 100 µM (inactive); with IGROV-1 it was 37.4 µM (inactive); in the test on K562, 24.5 µM (inactive); in the test on LOX IMVI, 44.6 µM (inactive); in the test on MDA-N, 25.2 µM (inactive); in the test on OVCAR-4, 45.7 µM (inactive). Moreover, the GI50 was 58.1 µM (inactive) in the test on OVCAR-5; 40 µM (inactive) with PC-3; 24.4 µM (inactive) with RPMI-8226; 58.9 µM (inactive) in the test with RXF 393; 63.8 µM (inactive) with SF-268; 69.7 µM (inactive) with SK-MEL-28. Further, the GI50 with SK-MEL-5 was 30.8 µM (inactive); with SW-620 it was 28.2 µM (inactive).
On to `Oc1cccc2ccc(SSc3ccc4cccc(O)c4n3)nc12`, for which the GI50 in the test on A549 was 31 µM (inactive); in the test with CAKI-1, 18.5 µM (inactive); in the test on COLO 205 it was 18.8 µM (inactive); in the test on HCC 2998 it was 5.56 µM (inactive); in the test on HCT-116 it was 18.2 µM (inactive); with HCT-15, 22.3 µM. Further, the GI50 in the test on HOP-62 is 17.7 µM (inactive); in the test with IGROV-1 it was 24.7 µM (inactive); in the test on K562 it was 29.2 µM (inactive); with LOX IMVI it was 18.2 µM (inactive); with MDA-N it was 17.5 µM (inactive); with OVCAR-4, 16.1 µM (inactive). The GI50 was 19.4 µM (inactive) in the test with OVCAR-5; 16.3 µM (inactive) with PC-3; 26.1 µM (inactive) with RPMI-8226; 16 µM (inactive) in the test on RXF 393; 25.3 µM (inactive) with SF-268; 20.7 µM (inactive) in the test on SK-MEL-28. For the same molecule, the GI50 in the test on SK-MEL-5 is 33.5 µM (inactive); in the test on SW-620, 25.4 µM (inactive).
